Columns and labels:
[1] = system: Chinese hamster V-79 cells; experiment: Radiosensitization effect on cells (ER in vitro); assay type: cell-based; conditions: 1.0 mM, 60 min at 37° C., nitrogen (hypoxic), X-ray 1.6 Gy/min
Protocol: Radiosensitization effect on cells (ER in vitro)
A solution of a predetermined concentration (1.0 mM) of a compound to be examined in a medium was added to the dish. After standing for 60 minutes at 37° C., the dish was placed in a closed vessel at room temperature.
After the irradiation, the cells were washed with phosphate buffer and digested with trypsin into single cells. Then, a predetermined amount of the cells was introduced into 5 ml of a culture medium in a culture dish and cultured for 7 days at 37° C. After staining and washing with water, the number of colonies formed was counted.
For comparison, the irradiation was carried out in the nitrogen atmosphere or in the air after adding the medium without the test compound.

[2] = system: EMT-6 tumor cells; experiment: Radiosensitization effect on tumor transplanted in animal (ER in vivo); parameters: species or system male Bal/c mouse; conditions: EMT-6 tumor in mouse, 100 mg/kg intraperitoneal, X-ray after 40 minutes at 450 rad/min. for 5 minutes
Protocol: Radiosensitization effect on tumor transplanted in animal (ER in vivo)
To both thighs of male Bal/c mouse (8 weeks; 4 mice in a group), 10^5 of EMT-6 tumor cells were subcutaneously inoculated. After the diameter of the tumor reached about 1 cm, a solution of a compound to be examined in saline in an amount of 100 mg of the compound per kg was intraperitonealy administered. After 40 minutes, X-ray was irradiated at 450 rad/min. for 5 minutes and then the mouse was sacrificed.
After the whol body of the mouse was sterilized with 70% ethanol, the tumor was taken out. The tissue was homogenized and then digested by stirring for 50 minutes at 37° C. with adding 22 ml of trypsin. The number of cells in the supernatant was counted. A predetermined amount of the cells was introduced in a plastic plate having a diameter of about 5 cm. To the plate, 5 ml of medium was added and cultured in a CO2 incubator. The plate containing the irradiated cells was removed from the incubator after 9 days, while a comparison dish containing unirradiated cells was incubated for 10 days. The cells were fixed by methanol and strained by Giemsa stain. Then, the number of colonies formed were counted.
The survival rate was calculated with using the data of the unirradiated cells as control.

[3] = in vivo; conditions: mouse, female ICR mice of 5 weeks
[4] = system: hypoxic cells; conditions: compared with no Misonidazole; cited from earlier work
[5] = hardly administered in an effective amount; cited from earlier work
[6] = administered in human beings; cited from earlier work

Compound	ER in vitro [1]	ER in vivo [2]	LD50 [3] [mg/kg]	hypoxic cell sensitizing effectiveness [4]	neurotoxicity [5]	sensitizing effect in human beings [6]
O=C(COCC(F)(F)Cn1ccnc1[N+](=O)[O-])NCCO [(43), 2[3'-(2"-nitroimidazolyl)-2',2'-difluoropropoxy]acetic acid hydroxyethylamide]	1.54	1.38	> 2000			
NC(=O)CCNC(=O)C(F)(F)Cn1ccnc1[N+](=O)[O-] [(22), 3-[3'-(2"-nitroimidazolyl)-2',2'-difluoropropionylamino]propionic acid amide]	1.46	1.58	2800			
O=[N+]([O-])c1nccn1CC(F)COCC(O)CO (stereo not drawn) [(1), 1-(2'-fluoro-4'-oxa-6',7'-dihydroxyheptyl)-2-nitroimidazole]	1.49	1.38	2700			
COCC(O)Cn1ccnc1[N+](=O)[O-] (stereo not drawn) [Comparative (1), 1-(2-Nitro-1-imidazolyl)-3-methoxy-2-propanol]	1.50	1.43		about twice as effective as when no Misonidazole is used	strong neurotoxicity	No sensitizing effect was confirmed
O=[N+]([O-])c1nccn1CC(F)COCCO (stereo not drawn) [(11), 1-(2'-fluoro-4'-oxa-6'-hydroxyhexcyl)-2-nitroimidazole]	1.66	1.52				
O=C(COCC(F)(F)Cn1ccnc1[N+](=O)[O-])NO [(44)]	1.68	1.48				
NC(=O)C(F)(F)CNC(=O)C(F)(F)Cn1ccnc1[N+](=O)[O-] [(24), 3-[3'-(2"-nitroimidazolyl)-2',2'-difluoropropionylamino]-2,2-difluoropropionic acid amide]	1.76	1.41	2600			
O=C(CCNC(=O)C(F)(F)Cn1ccnc1[N+](=O)[O-])NCCO [(47), 3-[3'-(2"-nitroimidazolyl)-2',2'-difluoropropionamido]propionic acid hydroxyethylamide]	1.43	1.38	> 2000			
O=C(NCCO)C(F)(F)COCC(F)(F)Cn1ccnc1[N+](=O)[O-] [(45), 3-[3'-(2"-nitroimidazolyl)-2',2'-difluoropropoxy]-2,2-difluoropropionic acid hydroxyethylamide]	1.63	1.40	> 1600			
NC(=O)CNC(=O)C(F)(F)Cn1ccnc1[N+](=O)[O-] [(48)]	1.61	1.49	2200			
COC(=O)OCCNC(=O)C(F)(F)Cn1ccnc1[N+](=O)[O-] [(51), methyl 3-(2'-nitroimidazolyl)-2,2-difluoropropionamidoethoxyformate]			> 3000			
NC(=O)C(F)(F)COCC(F)(F)Cn1ccnc1[N+](=O)[O-] [(46), 3-[3'-(2"-nitroimidazolyl)-2',2'-difluoropropoxy]2,2-difluoropropionylamide]	1.58	1.45				
NC(=O)C(F)(F)Cn1ccnc1[N+](=O)[O-] [(28), 3-(2'-nitroimidazolyl)-2,2-difluoropropionic acid amide]	1.48	1.32	1100			

— patent publication US4977273A, “Fluorine-containing 2-nitroimidazole derivatives” (Kyoto University of Honmachi, priority 1988, dated 1990)
